Tested on: primary human neutrophils
Assay: Neutrophil spontaneous apoptosis by cell shrinkage (forward scatter, flow cytometry)
Assay type: cell-based
Conditions: 6 hours of culture
Method: FIG. 4: Inhibition of NADPH oxidase can decrease the number of cells undergoing apoptosis. Neutrophils are cultured @2×10^6/ml in a 24 well plate. Following 6 hours of culture, Forward Scatter (FSc) parameters are examined following acquisition by a FacScan. Cell shrinkage is determined by the percentage of cells with reduced FSc compared with cellular FSc parameters at t=0 h.
Onset of apoptosis as determined by cell shrinkage was determined by flow cytometry. Isolated cells are set up in culture at a concentration of 2×10^6/ml. At the indicated time points a sample is removed and the forward and side scatter parameters of the cells are measured by flow cytometry using a Becton Dickenson FACScan equipped with CellQuest software. Cell shrinkage is detected by a reduction in forward scatter parameters. Determination of apoptosis inhibition was calculated by the percentage of cells with reduced forward scatter parameters, in untreated cultures, minus percentage of cells with reduced forward scatter parameters in treated cultures.
Primary human neutrophils are isolated and puriied from the peripheral blood of normal healthy individuals. Upon culture for 6 hour in a serum-containing cell culture medium, these neutrophils undergo ‘spontaneous apoptosis’ (Haslett, Clinical Science 83, pp639-648, 1992). […]

c1ccc2c(c1)[I+]c1ccccc1-2 [DPI]
percentage of cells undergoing apoptosis (cell shrinkage, reduced FSc): decrease the percentage of cells undergoing apoptosis
